Test results published in patent US10472341B2, “Bicyclic tetrahydrothiazepine derivatives useful for the treatment of neoplastic and/or infectious diseases” (APEIRON BIOLOGICS AG, priority 2015, dated 2019).

Legend:
[1] = tested on: PBMCs & tumor cell lines (K562, Panc1, BxPc3, HT-29, A549, HTB46, HTB47, A375, M21, SKBR3, CRL2505); assay: PBMCs alone or in co-culture with tumor cells of diverse origin: cytokines and granzyme; assay type: cell-based, human; details: for Granzyme / IFN-gamma / IL-2: 3 μM
Protocol: Isolated PBMCs, NK cells or CD8 positive cells were plated in Xvivo medium at 1.5*10^5 cells per in 96 well culture plates in the presence of 0.3*10^4 tumor cells where indicated. Cytokine secretion was determined by ELISA, immune cell activation (using Beckman-Coulter Abs CD25-PC5, CD69-PC7), cell viability and numbers by flow cytometry (Beckman-Coulter FC500 or Gallios) using 7-AAD exclusion as criterion for living cells. The tumor cell lines M21 and K562 represent two widely used tumor lines of melanoma and leukemia origin, respectively. However, tumor cells are known to employ different mechanisms to suppress immune functions, therefore it was investigated if the effects of compounds on immune cell activities against tumor cells can be generalized to a wide array of tumor cells of very diverse origins from different types of tumors. PBMCs were isolated and incubated with and without compounds, either alone or in co-culture with different tumor cells.

[2] = tested on: aCD3/aCD28-stimulated human CD4+-T-cells; assay: IL-2 production and activation markers in aCD3/aCD28 stimulated isolated human CD4+-T-cells; assay type: cell-based; details: IL-2 production at 3 μM compound
How it was run: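 CD4+ T cells isolated from buffy-coat PBMCs by microbeads were plated in Xvivo medium (1.5*10^5 cells/well) and stimulated with anti-CD3/28 mAbs plus compound. IL-2 measured by ELISA in supernatants at 24 h or 48 h; CD25 and proliferation by flow cytometry, CD69 at 24 h. Activity classes based on IL-2 at 3 μM compound.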

[3] = tested on: non-stimulated PBMCs; assay: Non-stimulated PBMCs: cytokine secretion and signs of T-cell activation; assay type: cell-based, human
From the text: This is an important finding for compounds that shall selectively act on T cells which have been activated by presence of antigen from pathogens or tumors, but shall not lead to an unwanted general activation of all T cells of a patient.

[4] = tested on: immune cells & anti-GD2-antibodies bound on M21 melanoma cells; assay: Immune cells stimulated by anti-GD2-antibody bound on M21 melanoma cells: TNF-alpha, activated NK cells; assay type: cell-based, human
Protocol: Isolated PBMCs, NK cells or CD8 positive cells were plated in Xvivo medium at 1.5*10^5 cells per in 96 well culture plates in the presence of 0.3*10^4 tumor cells where indicated. Cytokine secretion was determined by ELISA, immune cell activation (using Beckman-Coulter Abs CD25-PC5, CD69-PC7), cell viability and numbers by flow cytometry (Beckman-Coulter FC500 or Gallios) using 7-AAD exclusion as criterion for living cells. […] Antibodies that are bound to pathogens or pathogen-infected cells trigger activation of immune cells via Fc-receptors, that are expressed particularly on NK cells and myeloid cells. This mechanism is also utilized for cancer therapies when therapeutic antibodies against antigens which are preferentially expressed on cancer cells are administrated to patients which in turn recruit and activate immune cells to directly attack cancer cells. The GD2-antigen is strongly expressed on cancer cells of particular origins (among neuroblastoma and melanoma) and is therefore developed clinically as anti-cancer therapy. For M21 melanoma cells, GD2 is the only antigen that has been characterized to be accessible as tumor antigen. Therefore, an anti-GD2-antibody that was available in clinically grade quality was employed to test whether compounds can enhance the Fc-receptor mediated activation of immune cells to tumor-cell bound therapeutic antibodies.

[5] = PBMC & M21 tumor cells & anti-GD2 Ab high concentration, 0.3 μM
[6] = PBMC & M21 tumor cells & anti-GD2 Ab high concentration, 1 μM
[7] = PBMC & M21 tumor cells & anti-GD2 Ab high concentration, 3 μM
[8] = PBMC & M21 tumor cells & anti-GD2 Ab high concentration, 10 μM
[9] = PBMC & M21 tumor cells & anti-GD2 Ab low concentration, 0.3 μM
[10] = PBMC & M21 tumor cells & anti-GD2 Ab low concentration, 1 μM
[11] = PBMC & M21 tumor cells & anti-GD2 Ab low concentration, 3 μM
[12] = PBMC & M21 tumor cells & anti-GD2 Ab low concentration, 10 μM
[13] = PBMC & M21 tumor cells only, 0.3 μM
[14] = PBMC & M21 tumor cells only, 1 μM
[15] = PBMC & M21 tumor cells only, 3 μM
[16] = PBMC & M21 tumor cells only, 10 μM

SMILES: Cl.N[C@H]1CSc2cc(F)c(C(=O)NCCCC(F)(F)F)cc2N(Cc2ccc(Cl)cc2)C1=O [Example 40, (3R)-3-amino-5-[(4-chlorophenyl)methyl]-8-fluoro-4-oxo-N-(4,4,4-trifluorobutyl)-2,3,4,5-tetrahydro-1,5-benzothiazepine-7-carboxamide hydrochloride]
- Granzyme ([1]; PBMC & A375): 0.053 ng/mL
- IFN-gamma ([1]; PBMC & A375): 0.142 ng/mL
- IL-2 ([1]; PBMC & A375): 0.278 ng/mL
- Granzyme ([1]; PBMC & A549): 0.020 ng/mL
- IFN-gamma ([1]; PBMC & A549): 0.214 ng/mL
- IL-2 ([1]; PBMC & A549): 0.018 ng/mL
- Granzyme ([1]; PBMC & BxPc3): 0.008 ng/mL
- IFN-gamma ([1]; PBMC & BxPc3): 0.088 ng/mL
- IL-2 ([1]; PBMC & BxPc3): 0.092 ng/mL
- Granzyme ([1]; PBMC & CRL2505): 0.780 ng/mL
- IFN-gamma ([1]; PBMC & CRL2505): 0.663 ng/mL
- IL-2 ([1]; PBMC & CRL2505): 0.012 ng/mL
- Granzyme ([1]; PBMC & HT-29): 0.003 ng/mL
- IFN-gamma ([1]; PBMC & HT-29): 0.022 ng/mL
- IL-2 ([1]; PBMC & HT-29): 0.033 ng/mL
- Granzyme ([1]; PBMC & HTB46): 0.404 ng/mL
- IFN-gamma ([1]; PBMC & HTB46): 0.665 ng/mL
- IL-2 ([1]; PBMC & HTB46): 0.168 ng/mL
- Granzyme ([1]; PBMC & HTB47): 0.072 ng/mL
- IFN-gamma ([1]; PBMC & HTB47): 0.277 ng/mL
- IL-2 ([1]; PBMC & HTB47): 0.075 ng/mL
- Granzyme ([1]; PBMC & K562): 0.011 ng/mL
- IFN-gamma ([1]; PBMC & K562): 0.000 ng/mL
- IL-2 ([1]; PBMC & K562): 0.000 ng/mL
- Granzyme ([1]; PBMC & M21): 0.001 ng/mL
- IFN-gamma ([1]; PBMC & M21): 0.000 ng/mL
- IL-2 ([1]; PBMC & M21): 0.037 ng/mL
- Granzyme ([1]; PBMC & Panc1): 0.005 ng/mL
- IFN-gamma ([1]; PBMC & Panc1): 0.000 ng/mL
- IL-2 ([1]; PBMC & Panc1): 0.013 ng/mL
- Granzyme ([1]; PBMC & SKBR3): 0.001 ng/mL
- IFN-gamma ([1]; PBMC & SKBR3): 0.000 ng/mL
- IL-2 ([1]; PBMC & SKBR3): 0.005 ng/mL
- Granzyme ([1]; PBMC only): 0.001 ng/mL
- IFN-gamma ([1]; PBMC only): 0.000 ng/mL
- IL-2 ([1]; PBMC only): 0.000 ng/mL
- secretion of cytokines (IL-2, IFN-gamma) and granzyme ([1]; PBMCs in co-culture with diverse tumor cell lines): enhanced secretion of cytokines and granzyme strongly specifically upon tumor cell contact in diverse tumor cell lines
- enhancement of cytokine and granzyme secretion ([1]; PBMCs in the absence of tumor cells): such effect was not detected in the absence of tumor cells
- Activity Class CD4+ [2]: B (IL-2 production at 3 μM compound concentration between 2-10 ng/mL)
- cytokine secretion or other signs of T-cell activation [3]: did not enhance cytokine secretion or other signs of T-cell activation
- TNF-alpha [4, 5]: 106.30 pg/mL
- strongly activated NK cells [4, 5]: 23.55 % CD25+CD69+
- TNF-alpha [4, 6]: 142.98 pg/mL
- strongly activated NK cells [4, 6]: 32.63 % CD25+CD69+
- TNF-alpha [4, 7]: 192.34 pg/mL
- strongly activated NK cells [4, 7]: 42.50 % CD25+CD69+
- TNF-alpha [4, 8]: 257.96 pg/mL
- strongly activated NK cells [4, 8]: 42.22 % CD25+CD69+
- TNF-alpha [4, 9]: 36.53 pg/mL
- strongly activated NK cells [4, 9]: 6.92 % CD25+CD69+
- TNF-alpha [4, 10]: 55.72 pg/mL
- strongly activated NK cells [4, 10]: 11.88 % CD25+CD69+
- TNF-alpha [4, 11]: 93.25 pg/mL
- strongly activated NK cells [4, 11]: 17.22 % CD25+CD69+
- TNF-alpha [4, 12]: 114.88 pg/mL
- strongly activated NK cells [4, 12]: 20.25 % CD25+CD69+
- TNF-alpha [4, 13]: 17.47 pg/mL
- strongly activated NK cells [4, 13]: 0.75 % CD25+CD69+
- TNF-alpha [4, 14]: 17.59 pg/mL
- strongly activated NK cells [4, 14]: 1.10 % CD25+CD69+
- TNF-alpha [4, 15]: 28.95 pg/mL
- strongly activated NK cells [4, 15]: 2.40 % CD25+CD69+
- TNF-alpha [4, 16]: 38.00 pg/mL
- strongly activated NK cells [4, 16]: 2.19 % CD25+CD69+
- reactivity of immune cells to anti-GD2-antibodies bound on M21 melanoma cells ([4]; cytokine secretion, NK cell activation): enhanced reactivity of immune cells to anti-GD2-antibodies bound on M21 melanoma cells, resulting in increased secretion of cytokine and activation of NK cells
